Measurements as given in US8975280B2, “Deoxynojirimycin and D-arabinitol analogs and methods of using” (The Chancellor, Masters and Scholars of The University of …, priority 2006, dated 2015).
Like-named read-outs stand apart in the source and are kept apart here.

Experiments:
[1] = target: T1, α-glucosidase II (Rattus norvegicus, UniProt A0A8I6GFL3); assay: In vitro inhibition of purified α-glucosidase II, (a) and (b) activities, 2-AA-labeled FOS substrates, HPLC; format: biochemical
T1 construct: Purified α-glucosidase I and II were purified from rat liver by known methods; from tissue; host or cells: rat liver
Description: (§1) All chromatography was performed at 30° C. The first solvent, solvent A, was acetonitrile and the second solvent, solvent B, was Milli-Q water. […] Samples (<50 μl) were injected in Milli-Q water/acetonitrile (3/7, v/v). All chromatography was controlled, including data collection and processing, using Waters Empower software. Glucose units were determined, following comparison with a 2-AA-labeled glucose oligomer ladder (derived from a partial hydrolysate of dextran) external standard using Peak Time software (developed in-house).
Purified α-glucosidase I and II were purified from rat liver by known methods. […] 2-AA-labeled FOS were isolated and purified as substrates for either α-glucosidase I or II. […] […] […] […] The reactions were stopped by the addition of 30 μl acetonitrile.

[2] = target: T2, α-glucosidase I (Rattus norvegicus, UniProt O88941); assay: In vitro inhibition of purified α-glucosidase I, 2-AA-labeled FOS substrates, HPLC; format: biochemical
T2 construct: Purified α-glucosidase I and II were purified from rat liver by known methods; from tissue; host or cells: rat liver
T2 sequence (O88941 1-834): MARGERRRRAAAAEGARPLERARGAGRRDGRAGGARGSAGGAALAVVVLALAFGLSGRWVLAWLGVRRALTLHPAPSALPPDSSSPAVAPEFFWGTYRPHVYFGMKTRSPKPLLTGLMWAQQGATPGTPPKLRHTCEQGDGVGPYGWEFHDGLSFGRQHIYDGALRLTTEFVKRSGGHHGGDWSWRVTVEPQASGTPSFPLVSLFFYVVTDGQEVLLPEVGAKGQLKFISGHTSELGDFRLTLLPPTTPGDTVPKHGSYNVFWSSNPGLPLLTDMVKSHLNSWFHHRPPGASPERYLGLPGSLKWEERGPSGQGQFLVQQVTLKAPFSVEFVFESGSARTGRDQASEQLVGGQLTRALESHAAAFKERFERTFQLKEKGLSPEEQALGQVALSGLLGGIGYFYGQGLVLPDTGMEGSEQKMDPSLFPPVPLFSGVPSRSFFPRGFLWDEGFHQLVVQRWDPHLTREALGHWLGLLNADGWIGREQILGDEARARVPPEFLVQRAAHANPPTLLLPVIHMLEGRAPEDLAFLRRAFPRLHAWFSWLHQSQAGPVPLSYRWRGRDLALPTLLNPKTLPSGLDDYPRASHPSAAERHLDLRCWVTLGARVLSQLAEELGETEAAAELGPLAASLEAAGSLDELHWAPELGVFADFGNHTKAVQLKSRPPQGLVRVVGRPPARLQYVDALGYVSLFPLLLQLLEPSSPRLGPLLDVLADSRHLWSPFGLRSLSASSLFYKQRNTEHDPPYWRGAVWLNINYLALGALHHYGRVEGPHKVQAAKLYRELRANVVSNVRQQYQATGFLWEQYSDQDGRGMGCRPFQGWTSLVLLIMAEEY
Description: as §1
Purified α-glucosidase I and II were purified from rat liver by known methods. […] 2-AA-labeled FOS were isolated and purified as substrates for either α-glucosidase I or II. Fluorescently-labeled substrates Glc1Man5GlcNAc1 (G1M5N), Glc2Man5GlcNAc1 (G2M5N), Glc3Man5GlcNAc1 (G3M5N) and Glc3Man9GlcNAc, (G3M9N2) were added to separate 1.5 ml centrifuge tubes with varying concentrations of imino sugar and dried under vacuum. […] Similarly, α-glucosidase II was incubated for 2 hours with G2M5N and 20 minutes with G1M5N. […] The reactions were stopped by the addition of 30 μl acetonitrile.

[3] = pentamannose substrate Glc1Man5GlcNAc1, read-out: α-Glucosidase II (b) Glc1Man5GlcNAc1 IC50
[4] = pentamannose substrate Glc2Man5GlcNAc1, read-out: α-Glucosidase II (a) Glc2Man5GlcNAc1 IC50
[5] = nonamannose substrate Glc3Man9GlcNAc1, read-out: α-Glucosidase I Glc3Man9GlcNAc1 IC50
[6] = pentamannose substrate Glc3Man5GlcNAc1, read-out: α-Glucosidase I Glc3Man5GlcNAc1 IC50

T1 sequence (A0A8I6ADW9 1-525 partner): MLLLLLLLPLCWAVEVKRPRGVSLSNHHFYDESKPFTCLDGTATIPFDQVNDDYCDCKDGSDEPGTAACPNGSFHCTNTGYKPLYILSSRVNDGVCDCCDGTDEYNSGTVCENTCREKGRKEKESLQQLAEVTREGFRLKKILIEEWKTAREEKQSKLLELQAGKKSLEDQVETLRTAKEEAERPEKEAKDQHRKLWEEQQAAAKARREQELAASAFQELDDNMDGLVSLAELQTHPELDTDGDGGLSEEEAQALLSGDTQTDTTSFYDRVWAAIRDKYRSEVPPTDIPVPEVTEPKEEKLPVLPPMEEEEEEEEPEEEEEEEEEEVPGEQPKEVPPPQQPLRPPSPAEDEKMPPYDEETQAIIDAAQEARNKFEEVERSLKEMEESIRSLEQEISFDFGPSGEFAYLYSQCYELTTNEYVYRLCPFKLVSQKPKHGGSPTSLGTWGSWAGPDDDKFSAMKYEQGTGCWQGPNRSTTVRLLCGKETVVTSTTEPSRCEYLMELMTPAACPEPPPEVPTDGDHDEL

Row | SMILES | IC50 [1, 3] [µM] | IC50 [1, 4] [µM] | IC50 [2, 5] [µM] | IC50 [2, 6] [µM] | IC50 ([1]; heptamannose substrate Glc1Man7GlcNAc1, read-out: α-Glucosidase II (b) Glc1Man7GlcNAc1 IC50) [µM] | IC50 ([1]; heptamannose substrate Glc2Man7GlcNAc1, read-out: α-Glucosidase II (a) Glc2Man7GlcNAc1 IC50) [µM] | IC50 ([2]; heptamannose substrate Glc3Man7GlcNAc1, read-out: α-Glucosidase I Glc3Man7GlcNAc1 IC50) [µM]
1 | CCCCN1C[C@H](O)[C@@H](O)[C@H](O)[C@H]1CO [NB-DNJ, N-butyl-DNJ, reference compound] | 53 ± 16.6 | 10.8 ± 1.1 | 0.59 ± 0.08 | 0.68 ± 0.15 | – | – | –
2 | O=[N+]([O-])c1ccc(NCCCCCCN2C[C@H](O)[C@@H](O)[C@H](O)[C@H]2CO)c([N+](=O)[O-])c1 [NDP-DNJ, N—(N′-{2,4-dinitrophenyl)-6-aminohexyl)-deoxynojirimycin] | 1.9 ± 0.4 | 6.9 ± 3.4 | 0.054 ± 0.02 | 0.108 ± 0.02 | 10.2 ± 0.02 | 18.1 ± 1.6 | 0.045 ± 0.003
